Laboratory results reported in patent US20240308976A1, “COMPOUNDS THAT MEDIATE PROTEIN DEGRADATION AND USES THEREOF” (Monte Rosa Therapeutics, Inc., priority 2021, published 2024).

Assays:
[1] = target: CRBN-DDB1 (Homo sapiens, UniProt Q96SW2); test: Compound binding to CRBN by HTRF assay; details: CRBN-DDB1 2.5 nM, Cy5-Thalidomide 100 nM, 30 min at ambient temperature; read-out: HTRF Class (Cereblon binding, HTRF IC50)
Description: Example 146: Compound Binding to CRBN by HTRF Assay
Compound activity was monitored in a Homogenous Time-Resolved Fluorescence (HTRF) assay using 1-[5-({2-[2-(2-{[2-(2,6-dioxopiperidin-3-yl)-1,3-dioxo-2,3-dihydro-1H-isoindol-4-yl]oxy}acetamido)ethoxy]ethyl}carbamoyl)pentyl]-3,3-dimethyl-2-[(1E,3E)-5-[(2E)-1,3,3-trimethyl-5-sulfo-2,3-dihydro-1H-indol-2-ylidene]penta-1,3-dien-1-yl]-3H-indol-1-ium-5-sulfonate as a fluorescent probe. Biochemical assays were conducted in Greiner white 384 well HiBase plates (Cat. No 784075-25) in 10 μL total volume. A one pot detection solution of CRBN-DDB1 (2.5 nM), Anti-His Terbium Cryptate Gold (1X, PerkinElmer Cat. #: 61HI2TLB), and Cy5-Thalidomide (100 nM, Tenova Cat.: T52461) was prepared in 20 mM HEPES, 20 mM NaCl, 0.2 mM TCEP, 0.2 mM EDTA, and 0.005% Tween20 was dispensed to each assay plate. Compounds were stored in dry, ambient temperatures at 10 mM. A 10-point, 1:3 dilution series was prepared from 10 mM stock concentrations in Echo-compatible LDV plates. 10 nL of each compound dilution series was dispensed into assays wells using an Echo 650 (Labcyte inc. USA). 10 nL of 10 mM Lenalidomide was transferred into the active-control wells for the assay and 10 nL of DMSO was transferred into the neutral-control wells. The assay was then allowed to incubate for 30 min at ambient temperature after transferring compound. Plate measurements were taken on a Pherastar FSX (BMG Labtech, Germany) using the HTRF Red filter (Ex. 337 nm, em1: 620 nm, em2: 665 nm) (Flashes: 50, Integration time: 60-400 us, Z-height: 10 mm, Ratio-multiplier: 10,000). The HTRF signal was then subsequently normalized to the neutral and active controls. Analysis and IC50 values were derived using KNIME analytics (KNIME Zurich) transformation and fitting within Collaborative Drug Discovery (Collaborative Drug Discovery USA). Ki was derived from the geometric mean of the IC50 values using the Cheng-Prustoff transformation.
(§1) In Table 2, each compound is assigned a class (HTRF class) indicating the ability for Cereblon binding by means of their HTRF IC50 values according to […]: A, B, C or D. According to the code, A represents an IC50 value of ≤100 nM, B represents an IC50 value>100 nM and ≤1000 nM, C represents an IC50 value>1000 nM. IF Class assigns each compound a code indicating the ability for GSPT1 degradation: A, B or C. According to the code, A represents a DC50 value of ≤30 nM, B represents a DC50 value>30 nM and ≤300 nM and C represents a DC50 value of >300 nM.

[2] = target: T1, GSPT1 (Homo sapiens, UniProt P15170+Q96SW2); test: Immunofluorescence assay for activity to degrade GSPT1 in CAL-51 cells; assay type: cell-based; details: 6 h treatment, read-out: IF Class (GSPT1 degradation, DC50)
T1 construct: CAL-51 cells were purchased from DSMZ (cat. Number ACC302); host or cells: CAL-51
Description: Example 147: Compound Activity by Immunofluorescence Assay
The representative compounds were tested in an immunofluorescence assay for their activity to degrade GSPT1. CAL-51 cells were purchased from DSMZ (cat. Number ACC302), sub-cultured in 90% Dulbecco's MEM (4.5 g/L glucose, Gibco 11965)+10% heat inactivated FBS (BioConcept, 2-01F136I) and incubated at 37° C., 5% CO2. For the assay imaging microtiter plate Cell Carrier 96 Ultra (Perkin Elmer 6055302) were pre-coated with Fibronectin (Sigma F085, 30 μL at 0.2 μg/mL) in PBS (100 μL, Gibco 14190) for 45 min at room temperature, rinsed with PBS and CAL-51 cells (30K cells/well) were plated and let to adhere overnight. Cells were treated with compounds typically using a serial dilution ranging from 30 μM to 0.1 nM for 6 h. Compounds were stored at 10 mM DMSO stocks. Vehicle (DMSO), positive (CC-885, 10 μM) and rescue controls (positive control plus 0.2 μM bortezomib) were also included at this stage. Cells were subsequently rinsed with PBS and fixed in 10% Formalin solution (50 μL, Sigma HT5011)) for 20 mins at room temperature. Following three consecutive PBS washes (100 μL), cells were permeabilized in 0.1% Triton X-100 in PBS (Sigma 93443, 50 μL) for 15 min. at room temperature. Following three further PBS washes, 50 μL blocking buffer (1% BSA, Sigma A4503, in PBS) was added for 45 min for signal-to noise reduction. Primary antibody (human GSPT1, Sigma HPA052488) was diluted in blocking buffer (dil.1/300, 35 μL/well) and incubated with the cells overnight at 4° C. After three PBS washes, Alexa-fluor 488 coupled secondary antibodies (Invitrogen, A32731, dil. 1/1000), Alexa-fluor 647-Phalloidin (Invitrogen, A22287, dil. 1/200) and DAPI (Thermo, #62248, dil. 1/1000) were diluted in blocking buffer and incubated with the samples for 2 h at room temperature. After three final PBS washes, samples were conserved in 100 μL PBS in the dark, until measurement. Image acquisition was performed on the Operetta High-Content Imager (Perkin-Elmer). Fluorescence intensity of […] (GSPT1), Alexa-Fluor 647 (Actin) and DAPI (Nucleus) were measured. For the determination of GSPT1 DC50 values, a custom algorithm implemented in the PerkinElmer image analysis software Harmony-Acapella® was developed. After user-defined setting of adjustment parameters, the analysis was run identically without human intervention for all image fields. DAPI staining of the nuclei was used to determine the location of cells using standard nuclei detection modules. Segmentation artifacts were removed by threshold-based filters for area, roundness and intensity. The outline of the cells was determined analogously from the sum of the normalized, smoothed DAPI and Actin channel, starting from each nucleus. The Alexa-Fluor 488 (GSPT1) signal intensity in each cell was finally measured, in order to obtain a Mean intensity per cell. GSPT1 degradation (DC50) was calculated after normalization to controls and data import in CDD vault Database, using non-linear regression.
as §1

Chain of CRBN-DDB1 (Q96SW2 whole entry): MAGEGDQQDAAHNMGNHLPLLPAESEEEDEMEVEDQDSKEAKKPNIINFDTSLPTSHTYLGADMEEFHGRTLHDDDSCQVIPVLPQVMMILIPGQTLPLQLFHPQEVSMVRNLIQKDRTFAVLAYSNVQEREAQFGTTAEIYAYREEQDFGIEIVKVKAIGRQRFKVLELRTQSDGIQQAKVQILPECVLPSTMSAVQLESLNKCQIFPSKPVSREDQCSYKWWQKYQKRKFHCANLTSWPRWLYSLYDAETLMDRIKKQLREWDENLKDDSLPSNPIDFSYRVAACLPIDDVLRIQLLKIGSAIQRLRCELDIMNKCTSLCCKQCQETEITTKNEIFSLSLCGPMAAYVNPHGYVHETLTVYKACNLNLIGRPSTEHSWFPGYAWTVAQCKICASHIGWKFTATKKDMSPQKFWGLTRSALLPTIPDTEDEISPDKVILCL
Chain of CRBN-DDB1 (Q16531 whole entry partner): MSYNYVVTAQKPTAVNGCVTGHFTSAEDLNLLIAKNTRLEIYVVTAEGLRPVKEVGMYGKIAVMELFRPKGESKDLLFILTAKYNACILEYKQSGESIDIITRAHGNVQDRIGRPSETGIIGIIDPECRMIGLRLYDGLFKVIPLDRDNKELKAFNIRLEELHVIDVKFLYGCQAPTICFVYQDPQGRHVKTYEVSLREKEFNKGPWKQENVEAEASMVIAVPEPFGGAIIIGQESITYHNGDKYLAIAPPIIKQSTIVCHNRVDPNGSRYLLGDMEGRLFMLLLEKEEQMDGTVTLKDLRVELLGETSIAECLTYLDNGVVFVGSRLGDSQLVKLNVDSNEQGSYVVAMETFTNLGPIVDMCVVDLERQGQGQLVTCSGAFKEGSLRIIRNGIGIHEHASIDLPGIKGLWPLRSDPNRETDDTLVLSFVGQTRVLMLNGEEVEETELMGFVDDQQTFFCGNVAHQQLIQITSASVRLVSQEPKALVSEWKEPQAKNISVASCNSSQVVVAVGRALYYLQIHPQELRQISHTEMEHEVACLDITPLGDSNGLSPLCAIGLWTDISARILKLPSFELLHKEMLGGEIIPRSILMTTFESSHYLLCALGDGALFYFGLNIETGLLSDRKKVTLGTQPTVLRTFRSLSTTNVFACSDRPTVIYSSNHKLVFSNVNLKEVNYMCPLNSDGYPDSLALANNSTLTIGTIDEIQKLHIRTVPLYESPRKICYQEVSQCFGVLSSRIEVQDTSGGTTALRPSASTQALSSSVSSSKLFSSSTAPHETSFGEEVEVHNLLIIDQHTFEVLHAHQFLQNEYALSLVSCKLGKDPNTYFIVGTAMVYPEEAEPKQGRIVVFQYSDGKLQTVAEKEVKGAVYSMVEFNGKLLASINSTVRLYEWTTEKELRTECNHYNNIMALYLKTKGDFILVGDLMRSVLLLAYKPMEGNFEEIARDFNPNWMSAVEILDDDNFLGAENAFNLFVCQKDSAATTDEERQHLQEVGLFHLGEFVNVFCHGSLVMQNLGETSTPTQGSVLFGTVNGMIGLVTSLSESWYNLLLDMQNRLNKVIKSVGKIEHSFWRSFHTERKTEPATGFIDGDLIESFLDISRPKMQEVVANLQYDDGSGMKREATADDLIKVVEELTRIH
T1 sequence (P15170 whole entry): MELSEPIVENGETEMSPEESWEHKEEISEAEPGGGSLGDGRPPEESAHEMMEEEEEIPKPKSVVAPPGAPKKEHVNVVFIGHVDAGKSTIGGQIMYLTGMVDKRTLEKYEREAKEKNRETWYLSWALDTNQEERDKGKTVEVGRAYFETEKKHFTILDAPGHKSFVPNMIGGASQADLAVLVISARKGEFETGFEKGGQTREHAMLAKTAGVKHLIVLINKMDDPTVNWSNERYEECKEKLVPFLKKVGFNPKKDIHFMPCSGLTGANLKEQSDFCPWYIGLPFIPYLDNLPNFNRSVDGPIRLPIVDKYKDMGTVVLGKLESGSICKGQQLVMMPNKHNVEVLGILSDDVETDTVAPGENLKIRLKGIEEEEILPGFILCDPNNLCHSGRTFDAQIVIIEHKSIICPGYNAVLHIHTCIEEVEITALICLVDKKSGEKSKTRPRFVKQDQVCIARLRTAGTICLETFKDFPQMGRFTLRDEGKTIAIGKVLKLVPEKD
T1 sequence (Q96SW2 whole entry): as the sequence (Q96SW2 whole entry) above
T1 sequence (Q16531 2-1140 partner limits assumed): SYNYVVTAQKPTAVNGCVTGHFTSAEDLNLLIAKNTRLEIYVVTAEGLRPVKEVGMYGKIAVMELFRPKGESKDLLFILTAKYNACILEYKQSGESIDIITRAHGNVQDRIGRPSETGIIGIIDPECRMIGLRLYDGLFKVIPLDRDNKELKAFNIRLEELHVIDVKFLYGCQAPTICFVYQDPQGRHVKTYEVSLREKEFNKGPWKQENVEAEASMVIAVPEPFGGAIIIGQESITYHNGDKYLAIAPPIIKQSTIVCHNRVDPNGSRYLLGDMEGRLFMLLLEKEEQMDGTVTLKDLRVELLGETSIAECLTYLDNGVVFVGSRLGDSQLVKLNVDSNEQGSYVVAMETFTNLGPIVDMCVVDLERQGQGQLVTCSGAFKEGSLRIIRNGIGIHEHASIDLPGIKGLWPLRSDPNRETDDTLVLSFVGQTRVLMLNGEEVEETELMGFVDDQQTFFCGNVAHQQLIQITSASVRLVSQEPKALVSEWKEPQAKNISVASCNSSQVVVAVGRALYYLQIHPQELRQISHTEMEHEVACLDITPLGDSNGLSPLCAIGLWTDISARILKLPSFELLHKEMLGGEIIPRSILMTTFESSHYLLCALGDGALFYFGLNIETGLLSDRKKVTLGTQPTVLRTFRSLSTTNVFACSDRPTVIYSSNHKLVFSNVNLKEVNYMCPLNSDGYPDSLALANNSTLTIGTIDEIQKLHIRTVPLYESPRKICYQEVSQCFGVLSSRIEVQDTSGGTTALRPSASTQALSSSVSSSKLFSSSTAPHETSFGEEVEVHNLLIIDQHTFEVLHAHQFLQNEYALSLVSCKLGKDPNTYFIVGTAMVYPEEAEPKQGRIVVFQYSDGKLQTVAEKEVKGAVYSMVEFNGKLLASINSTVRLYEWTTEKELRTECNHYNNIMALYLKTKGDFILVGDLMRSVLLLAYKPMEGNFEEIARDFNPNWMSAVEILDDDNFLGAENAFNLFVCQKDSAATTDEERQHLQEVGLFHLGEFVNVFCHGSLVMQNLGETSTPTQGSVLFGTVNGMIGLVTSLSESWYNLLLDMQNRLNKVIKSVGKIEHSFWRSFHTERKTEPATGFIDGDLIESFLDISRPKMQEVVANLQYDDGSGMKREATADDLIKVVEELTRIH

Row | SMILES | IC50 [1] | DC50 [2]
1 | O=C1CCC(c2c(F)cc(N3CC(OC(=O)NC4CCCC4)C3)cc2F)C(=O)N1 (centres unmarked) [Compound 92, 1-(4-(2,6-dioxopiperidin-3-yl)-3,5-difluorophenyl)azetidin-3-yl cyclopentylcarbamate] | 100 to 1000 nM | > 300 nM
2 | O=C1CCC(c2c(F)cc(N3CC(OC(=O)N[C@H]4CCCOC4)C3)cc2F)C(=O)N1 (stereo partly drawn) [Compound 84, 1-(4-(2,6-dioxopiperidin-3-yl)-3,5-difluorophenyl)azetidin-3-yl ((S)-tetrahydro-2H-pyran-3-yl)carbamate] | 100 to 1000 nM | > 300 nM
3 | CC(C)(C)c1ccc(NC(=O)NC2CN(c3cc(F)c(C4CCC(=O)NC4=O)c(F)c3)C2)cn1 (centres unmarked) [Compound 12, 1-(6-(tert-butyl)pyridin-3-yl)-3-(1-(4-(2,6-dioxopiperidin-3-yl)-3,5-difluorophenyl)azetidin-3-yl)urea] | ≤ 100 nM | ≤ 30 nM
4 | Cc1ccc(NC(=O)OC2CN(c3cc(Cl)c(C4CCC(=O)NC4=O)cc3F)C2)cc1Cl (centres unmarked) [Compound 29] | > 1000 nM | 30 to 300 nM
5 | Cc1ccc(NC(=O)NC2CN(c3ccc(C4CCC(=O)NC4=O)c(Cl)c3)C2)cc1Cl (centres unmarked) [Compound 42, 1-(1-(3-chloro-4-(2,6-dioxopiperidin-3-yl)phenyl)azetidin-3-yl)-3-(3-chloro-4-methylphenyl)urea] | 100 to 1000 nM | 30 to 300 nM
6 | CC1(C)CCC(NC(=O)OC2CN(c3cc(F)c(C4CCC(=O)NC4=O)c(F)c3)C2)CC1 (centres unmarked) [Compound 93, 1-(4-(2,6-dioxopiperidin-3-yl)-3,5-difluorophenyl)azetidin-3-yl (4,4-dimethylcyclohexyl) carbamate] | ≤ 100 nM | ≤ 30 nM
7 | O=C1CCC(c2c(F)cc(N3CC(OC(=O)Nc4cc(F)cc(OC(F)F)c4)C3)cc2F)C(=O)N1 (centres unmarked) [Compound 44, 1-(4-(2,6-dioxopiperidin-3-yl)-3,5-difluorophenyl)azetidin-3-yl (3-(difluoromethoxy)-5-fluorophenyl)carbamate] | 100 to 1000 nM | 30 to 300 nM
8 | Cc1ccc(NC(=O)OC2CN(c3ccc(C4CCC(=O)NC4=O)c(Cl)c3F)C2)cc1Cl (centres unmarked) [Compound 54, 1-(3-chloro-4-(2,6-dioxopiperidin-3-yl)-2-fluorophenyl)azetidin-3-yl(3-chloro-4-methylphenyl)carbamate] | > 1000 nM | 30 to 300 nM
9 | Cc1ccc(NC(=O)NC2CN(c3ccc(C4CCC(=O)NC4=O)cc3)C2)cc1Cl (centres unmarked) [Compound 66, 1-(3-chloro-4-methylphenyl)-3-(1-(4-(2,6-dioxopiperidin-3-yl)phenyl)azetidin-3-yl)urea] | 100 to 1000 nM | 30 to 300 nM
10 | N#Cc1cc(Cl)cc(NC(=O)OC2CN(c3cc(F)c(C4CCC(=O)NC4=O)c(F)c3)C2)c1 (centres unmarked) [Compound 47, 1-(4-(2,6-dioxopiperidin-3-yl)-3,5-difluorophenyl)azetidin-3-yl(3-chloro-5-cyanophenyl)carbamate] | 100 to 1000 nM | 30 to 300 nM
11 | CC1(c2ccc(NC(=O)NC3CN(c4cc(F)c(C5CCC(=O)NC5=O)c(F)c4)C3)cn2)CC1 (centres unmarked) [Compound 40, 1-(1-(4-(2,6-dioxopiperidin-3-yl)-3,5-difluorophenyl)azetidin-3-yl)-3-(6-(1-methylcyclopropyl)pyridin-3-yl)urea] | 100 to 1000 nM | ≤ 30 nM
12 | Cc1ccc(NC(=O)OC2CN(c3ccc(C4CCC(=O)NC4=O)c(F)c3)C2)cc1Cl (centres unmarked) [Compound 8, 1-(4-(2,6-dioxopiperidin-3-yl)-3-fluorophenyl) azetidin-3-yl(3-chloro-4-methylphenyl)carbamate] | 100 to 1000 nM | ≤ 30 nM
13 | C[C@@H]1CCCN1c1ccc(NC(=O)OC2CN(c3cc(F)c(C4CCC(=O)NC4=O)c(F)c3)C2)cn1 (stereo partly drawn) [Compound 10, 1-(4-(2,6-dioxopiperidin-3-yl)-3,5-difluorophenyl)azetidin-3-yl (6-((R)-2-methylpyrrolidin-1-yl)pyridin-3-yl)carbamate] | ≤ 100 nM | ≤ 30 nM

Further lines, results first:

Row | IC50 [1] | DC50 [2] | SMILES
14 | ≤ 100 nM | 30 to 300 nM | C[C@@H](NC(=O)OC1CN(c2cc(F)c(C3CCC(=O)NC3=O)c(F)c2)C1)C1CCCCC1 (stereo partly drawn) [Compound 129, 1-(4-(2,6-dioxopiperidin-3-yl)-3,5-difluorophenyl)azetidin-3-yl ((R)-1-cyclohexylethyl)carbamate]
15 | ≤ 100 nM | ≤ 30 nM | O=C1CCC(c2c(F)cc(N3CC(OC(=O)NC4CC5(CCC5)C4)C3)cc2F)C(=O)N1 (centres unmarked) [Compound 138, 1-(4-(2,6-dioxopiperidin-3-yl)-3,5-difluorophenyl)azetidin-3-yl spiro[3.3]heptan-2-ylcarbamate]
16 | ≤ 100 nM | > 300 nM | O=C1CCC(c2c(F)cc(N3CC(OC(=O)NCC4COC4)C3)cc2F)C(=O)N1 (centres unmarked) [Compound 141, 1-(4-(2,6-dioxopiperidin-3-yl)-3,5-difluorophenyl) azetidin-3-yl (oxetan-3-ylmethyl)carbamate]
17 | ≤ 100 nM | 30 to 300 nM | Cc1ccc(N(C)C(=O)OC2CN(c3cc(F)c(C4CCC(=O)NC4=O)c(F)c3)C2)cc1Cl (centres unmarked) [Compound 145, 1-(4-(2,6-dioxopiperidin-3-yl)-3,5-difluorophenyl)azetidin-3-yl(3-chloro-4-methylphenyl)(methyl) carbamate]
18 | 100 to 1000 nM | > 300 nM | O=C1CCC(c2c(F)cc(N3CC(OC(=O)N4CCC(F)(F)CC4)C3)cc2F)C(=O)N1 (centres unmarked) [Compound 142, 1-(4-(2,6-dioxopiperidin-3-yl)-3,5-difluorophenyl)azetidin-3-yl 4,4-difluoropiperidine-1-carboxylate]
19 | 100 to 1000 nM | > 300 nM | CC(C)CNC(=O)OC1CN(c2cc(F)c(C3CCC(=O)NC3=O)c(F)c2)C1 (centres unmarked) [Compound 132, 1-(4-(2,6-dioxopiperidin-3-yl)-3,5-difluorophenyl)azetidin-3-yl isobutylcarbamate]
